The targets below were run with NC(=O)CCCCC1CCSS1 [lipoamide] (assay: thermal stability z-score vs DMSO; higher = more thermally stabilized by treatment). Conditions: HeLa; lipoamide concentration 100 µM; arsenate co-treatment: none.
Method: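 Cellular thermal proteome profiling in HeLa cells. Cells were treated with 100 µM lipoamide for 1 h, with or without 1 mM arsenate for a further 1 h, then heated to ten temperatures (37-66.3 °C), and soluble protein was quantified by TMT mass spectrometry relative to 0.1% DMSO controls. The thermal stability score (sum of log2 fold changes minus the abundance score) was transformed to a z-score; mean of n = 3 experiments.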
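Further: each temperature applied for 3 min, abundance score taken as mean log2 fold change at the two lowest temperatures, z-score obtained by mean subtraction and division by SD.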

Chain of UniProt Q969F9 (Q969F9 whole entry): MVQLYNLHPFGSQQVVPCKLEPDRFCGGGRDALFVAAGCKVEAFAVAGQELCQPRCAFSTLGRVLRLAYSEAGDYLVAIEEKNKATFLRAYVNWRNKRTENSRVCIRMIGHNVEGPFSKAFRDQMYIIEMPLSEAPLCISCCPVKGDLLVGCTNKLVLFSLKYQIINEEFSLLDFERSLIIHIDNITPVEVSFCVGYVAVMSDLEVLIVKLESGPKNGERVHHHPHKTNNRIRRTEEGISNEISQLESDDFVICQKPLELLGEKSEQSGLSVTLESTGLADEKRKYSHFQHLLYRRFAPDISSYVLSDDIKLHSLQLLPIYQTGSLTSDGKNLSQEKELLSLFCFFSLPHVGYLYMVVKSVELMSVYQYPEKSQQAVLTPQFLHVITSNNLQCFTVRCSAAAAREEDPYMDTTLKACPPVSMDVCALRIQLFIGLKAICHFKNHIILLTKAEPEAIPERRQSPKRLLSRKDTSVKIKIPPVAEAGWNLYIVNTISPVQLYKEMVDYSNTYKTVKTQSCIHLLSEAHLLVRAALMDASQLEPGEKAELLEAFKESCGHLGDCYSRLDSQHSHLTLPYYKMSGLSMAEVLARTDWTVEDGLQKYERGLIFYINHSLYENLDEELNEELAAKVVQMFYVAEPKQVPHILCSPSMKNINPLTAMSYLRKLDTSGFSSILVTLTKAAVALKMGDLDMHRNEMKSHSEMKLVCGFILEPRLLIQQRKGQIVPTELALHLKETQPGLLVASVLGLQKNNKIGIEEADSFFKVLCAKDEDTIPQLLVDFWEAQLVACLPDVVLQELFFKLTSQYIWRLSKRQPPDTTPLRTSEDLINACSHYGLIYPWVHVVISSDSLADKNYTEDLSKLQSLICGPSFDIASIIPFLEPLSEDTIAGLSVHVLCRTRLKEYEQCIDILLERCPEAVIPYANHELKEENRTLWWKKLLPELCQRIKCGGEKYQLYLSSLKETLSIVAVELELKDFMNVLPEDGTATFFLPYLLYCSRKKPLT
Chain of UniProt Q969G5 (Q969G5 whole entry): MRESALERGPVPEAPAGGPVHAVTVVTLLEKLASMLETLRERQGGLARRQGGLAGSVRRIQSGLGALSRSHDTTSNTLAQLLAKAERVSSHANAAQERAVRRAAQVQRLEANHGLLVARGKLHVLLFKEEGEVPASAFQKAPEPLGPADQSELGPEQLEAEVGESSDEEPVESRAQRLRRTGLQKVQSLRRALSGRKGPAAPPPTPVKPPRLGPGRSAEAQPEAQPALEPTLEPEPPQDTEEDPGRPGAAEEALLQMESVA
Chain of UniProt Q5JSH3 (Q5JSH3 whole entry): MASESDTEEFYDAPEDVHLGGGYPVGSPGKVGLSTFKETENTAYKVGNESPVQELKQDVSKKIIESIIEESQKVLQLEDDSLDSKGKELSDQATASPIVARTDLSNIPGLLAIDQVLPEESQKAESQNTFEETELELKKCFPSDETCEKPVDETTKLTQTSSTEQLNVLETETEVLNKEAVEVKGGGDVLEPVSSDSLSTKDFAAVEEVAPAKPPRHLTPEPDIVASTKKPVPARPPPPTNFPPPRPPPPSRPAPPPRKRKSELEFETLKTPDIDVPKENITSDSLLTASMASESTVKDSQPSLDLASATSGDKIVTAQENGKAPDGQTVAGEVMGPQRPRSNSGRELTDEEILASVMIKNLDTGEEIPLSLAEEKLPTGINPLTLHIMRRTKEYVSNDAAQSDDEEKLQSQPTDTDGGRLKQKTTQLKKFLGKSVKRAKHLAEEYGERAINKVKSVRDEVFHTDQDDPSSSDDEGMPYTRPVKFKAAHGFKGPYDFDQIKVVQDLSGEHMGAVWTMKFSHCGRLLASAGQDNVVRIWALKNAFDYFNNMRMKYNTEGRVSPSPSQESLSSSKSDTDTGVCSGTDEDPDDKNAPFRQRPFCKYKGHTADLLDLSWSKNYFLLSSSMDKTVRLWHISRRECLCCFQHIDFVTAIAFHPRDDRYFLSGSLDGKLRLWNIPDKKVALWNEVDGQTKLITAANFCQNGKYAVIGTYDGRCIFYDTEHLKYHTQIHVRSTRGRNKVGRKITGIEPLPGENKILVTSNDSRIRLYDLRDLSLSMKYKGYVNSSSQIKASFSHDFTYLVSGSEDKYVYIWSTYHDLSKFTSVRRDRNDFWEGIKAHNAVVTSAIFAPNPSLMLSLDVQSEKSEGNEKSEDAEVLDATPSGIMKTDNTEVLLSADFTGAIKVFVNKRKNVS
Chain of UniProt Q96TA2 (Q96TA2 whole entry): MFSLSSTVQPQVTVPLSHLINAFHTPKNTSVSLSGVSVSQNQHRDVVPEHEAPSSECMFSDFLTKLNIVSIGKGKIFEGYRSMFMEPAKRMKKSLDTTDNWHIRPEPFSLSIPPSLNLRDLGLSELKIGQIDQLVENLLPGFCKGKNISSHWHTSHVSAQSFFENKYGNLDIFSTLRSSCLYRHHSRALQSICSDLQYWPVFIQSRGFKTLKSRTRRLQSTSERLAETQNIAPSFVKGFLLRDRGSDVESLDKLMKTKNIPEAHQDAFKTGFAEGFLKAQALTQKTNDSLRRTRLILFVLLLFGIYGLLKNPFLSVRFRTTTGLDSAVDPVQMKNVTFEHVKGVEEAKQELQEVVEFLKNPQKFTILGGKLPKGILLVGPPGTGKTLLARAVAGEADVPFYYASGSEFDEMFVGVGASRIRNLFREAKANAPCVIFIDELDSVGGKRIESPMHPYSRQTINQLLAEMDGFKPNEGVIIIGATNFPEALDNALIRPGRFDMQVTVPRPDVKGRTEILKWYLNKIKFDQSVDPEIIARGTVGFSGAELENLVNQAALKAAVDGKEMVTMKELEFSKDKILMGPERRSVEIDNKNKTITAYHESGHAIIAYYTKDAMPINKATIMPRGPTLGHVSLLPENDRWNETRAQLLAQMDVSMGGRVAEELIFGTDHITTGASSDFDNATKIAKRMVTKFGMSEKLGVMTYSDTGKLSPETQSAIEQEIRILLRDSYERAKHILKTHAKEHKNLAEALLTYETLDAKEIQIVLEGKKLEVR
Chain of UniProt O15382 (O15382 whole entry): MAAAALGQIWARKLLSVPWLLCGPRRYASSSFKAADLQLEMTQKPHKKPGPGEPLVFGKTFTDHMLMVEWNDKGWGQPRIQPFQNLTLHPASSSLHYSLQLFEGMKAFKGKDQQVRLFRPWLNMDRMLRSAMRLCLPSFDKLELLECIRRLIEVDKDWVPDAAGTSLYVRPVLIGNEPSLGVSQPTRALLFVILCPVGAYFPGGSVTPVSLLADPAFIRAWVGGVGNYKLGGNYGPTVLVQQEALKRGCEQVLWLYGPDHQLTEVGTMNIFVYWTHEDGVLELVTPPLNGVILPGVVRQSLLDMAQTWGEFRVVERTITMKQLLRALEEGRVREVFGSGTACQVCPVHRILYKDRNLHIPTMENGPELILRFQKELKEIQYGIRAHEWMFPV
Chain of UniProt P13807 (P13807 whole entry): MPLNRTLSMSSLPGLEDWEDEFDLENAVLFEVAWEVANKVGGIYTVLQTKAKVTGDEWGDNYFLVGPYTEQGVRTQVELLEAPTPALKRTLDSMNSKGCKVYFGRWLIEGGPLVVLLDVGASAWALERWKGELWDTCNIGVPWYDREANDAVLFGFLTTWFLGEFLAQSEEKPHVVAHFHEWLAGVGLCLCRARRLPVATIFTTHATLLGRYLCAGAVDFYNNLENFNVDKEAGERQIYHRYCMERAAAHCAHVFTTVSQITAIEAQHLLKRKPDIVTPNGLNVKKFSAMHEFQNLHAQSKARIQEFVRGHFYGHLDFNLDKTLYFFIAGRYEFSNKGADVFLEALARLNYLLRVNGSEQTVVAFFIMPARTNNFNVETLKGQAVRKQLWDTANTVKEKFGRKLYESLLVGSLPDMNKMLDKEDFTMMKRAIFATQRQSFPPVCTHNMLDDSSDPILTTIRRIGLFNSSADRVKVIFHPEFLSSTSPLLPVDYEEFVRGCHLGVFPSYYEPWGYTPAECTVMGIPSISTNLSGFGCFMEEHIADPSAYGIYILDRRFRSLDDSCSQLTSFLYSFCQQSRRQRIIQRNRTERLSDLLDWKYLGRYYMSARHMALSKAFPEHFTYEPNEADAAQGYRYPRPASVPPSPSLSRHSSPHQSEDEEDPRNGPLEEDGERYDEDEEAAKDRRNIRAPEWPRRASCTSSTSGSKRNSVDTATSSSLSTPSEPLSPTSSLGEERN
Chain of UniProt O60568 (O60568 whole entry): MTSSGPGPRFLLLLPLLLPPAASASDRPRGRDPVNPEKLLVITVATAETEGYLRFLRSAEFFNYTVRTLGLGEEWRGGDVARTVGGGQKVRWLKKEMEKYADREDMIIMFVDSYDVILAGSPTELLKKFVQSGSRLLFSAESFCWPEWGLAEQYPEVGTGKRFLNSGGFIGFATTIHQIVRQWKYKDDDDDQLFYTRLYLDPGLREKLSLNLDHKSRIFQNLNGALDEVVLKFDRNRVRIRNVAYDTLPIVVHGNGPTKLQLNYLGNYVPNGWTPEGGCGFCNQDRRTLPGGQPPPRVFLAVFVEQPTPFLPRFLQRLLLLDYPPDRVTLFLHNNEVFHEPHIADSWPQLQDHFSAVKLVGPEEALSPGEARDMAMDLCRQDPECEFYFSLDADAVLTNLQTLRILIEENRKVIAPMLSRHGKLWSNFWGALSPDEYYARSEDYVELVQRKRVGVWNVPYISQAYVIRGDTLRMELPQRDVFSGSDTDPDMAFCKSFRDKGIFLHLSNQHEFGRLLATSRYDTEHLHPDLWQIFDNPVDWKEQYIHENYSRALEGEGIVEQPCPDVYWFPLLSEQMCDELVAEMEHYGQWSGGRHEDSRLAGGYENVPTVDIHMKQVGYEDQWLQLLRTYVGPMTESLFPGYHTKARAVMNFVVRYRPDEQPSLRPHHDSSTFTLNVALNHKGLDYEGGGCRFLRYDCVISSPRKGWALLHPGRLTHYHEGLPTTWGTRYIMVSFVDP
Chain of UniProt Q99720 (Q99720 whole entry): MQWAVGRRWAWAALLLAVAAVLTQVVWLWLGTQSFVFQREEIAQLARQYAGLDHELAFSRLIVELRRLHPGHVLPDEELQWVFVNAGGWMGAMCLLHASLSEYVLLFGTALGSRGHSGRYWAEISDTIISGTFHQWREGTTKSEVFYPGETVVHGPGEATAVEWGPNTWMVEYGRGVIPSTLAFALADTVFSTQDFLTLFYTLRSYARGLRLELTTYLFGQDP

With PAGE1 (UniProt O75459) as the target, how does the thermal stability z-score read?
Its thermal stability z-score is 0.51.

How did the thermal stability z-score turn out when SRSF7 (UniProt Q16629) was run?
Its thermal stability z-score is 0.776.

Which thermal stability z-score does the source give for BCAT2 (UniProt O15382) here?
The thermal stability z-score was 0.0921.

With EIF2AK2 (UniProt P19525) as the target, how does the thermal stability z-score read?
The thermal stability z-score was -0.252.

For TFG (UniProt Q92734), which thermal stability z-score is on record?
The thermal stability z-score was 0.76.

How did the thermal stability z-score turn out when STAT2 (UniProt P52630) was run?
Its thermal stability z-score is 0.0157.

With SRSF1 (UniProt Q07955) as the target, how does the thermal stability z-score read?
The thermal stability z-score was 0.446.

Which thermal stability z-score does the source give for FBXO22 (UniProt Q8NEZ5) here?
Its thermal stability z-score is -0.0297.

AKR7A2 (UniProt O43488) was tested. Which thermal stability z-score did it give?
Its thermal stability z-score is -0.0291.

How did the thermal stability z-score turn out when HPS3 (UniProt Q969F9) was run?
The thermal stability z-score was 0.206.

For SIGMAR1 (UniProt Q99720), which thermal stability z-score is on record?
Its thermal stability z-score is 0.0865.

For PCF11 (UniProt O94913), which thermal stability z-score is on record?
Its thermal stability z-score is -0.00889.

With GAR1 (UniProt Q9NY12) as the target, how does the thermal stability z-score read?
Its thermal stability z-score is -0.354.

For STAT6 (UniProt P42226), which thermal stability z-score is on record?
The thermal stability z-score was -0.269.

Which thermal stability z-score does the source give for HMOX2 (UniProt P30519) here?
Its thermal stability z-score is 1.34.

How did the thermal stability z-score turn out when PPME1 (UniProt Q9Y570) was run?
The thermal stability z-score was 0.00998.

Which thermal stability z-score does the source give for POLR3B (UniProt Q9NW08) here?
The thermal stability z-score was 0.0689.

For YME1L1 (UniProt Q96TA2), which thermal stability z-score is on record?
The thermal stability z-score was -0.425.

Which thermal stability z-score does the source give for POFUT1 (UniProt Q9H488) here?
Its thermal stability z-score is -3.17.

ACOT7 (UniProt O00154) was tested. Which thermal stability z-score did it give?
The thermal stability z-score was 0.304.

Which thermal stability z-score does the source give for WDR44 (UniProt Q5JSH3) here?
The thermal stability z-score was 0.42.

GSDMD (UniProt P57764) was tested. Which thermal stability z-score did it give?
Its thermal stability z-score is 0.362.

For GYS1 (UniProt P13807), which thermal stability z-score is on record?
The thermal stability z-score was 0.22.

SLC25A46 (UniProt Q96AG3) was tested. Which thermal stability z-score did it give?
Its thermal stability z-score is 0.322.

How did the thermal stability z-score turn out when OTULIN (UniProt Q96BN8) was run?
Its thermal stability z-score is -0.186.

For GUSB (UniProt P08236), which thermal stability z-score is on record?
The thermal stability z-score was -0.261.

How did the thermal stability z-score turn out when USP10 (UniProt Q14694) was run?
Its thermal stability z-score is 0.045.

How did the thermal stability z-score turn out when PLOD3 (UniProt O60568) was run?
Its thermal stability z-score is -4.8.

Which thermal stability z-score does the source give for SMARCE1 (UniProt Q969G3) here?
The thermal stability z-score was 1.55.

Which thermal stability z-score does the source give for LYN (UniProt P07948) here?
Its thermal stability z-score is 0.362.

With MVB12A (UniProt Q96EY5) as the target, how does the thermal stability z-score read?
The thermal stability z-score was -0.0184.

For ANO10 (UniProt Q9NW15), which thermal stability z-score is on record?
The thermal stability z-score was -0.122.

How did the thermal stability z-score turn out when KDM5C (UniProt P41229) was run?
Its thermal stability z-score is -0.0414.

With ABL2 (UniProt P42684) as the target, how does the thermal stability z-score read?
Its thermal stability z-score is -0.109.

CANT1 (UniProt Q8WVQ1) was tested. Which thermal stability z-score did it give?
The thermal stability z-score was 0.482.

With PRKCDBP (UniProt Q969G5) as the target, how does the thermal stability z-score read?
The thermal stability z-score was -0.0261.

These targets were tested with O=[As]([O-])(O)O.[K+] [potassium arsenate] in the same assay as above. Conditions: HeLa; arsenate concentration 1 mM.
Method: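 Cellular thermal proteome profiling in HeLa cells treated with 1 mM arsenate for 1 h (DMSO pretreatment), heated to ten temperatures (37-66.3 °C). Soluble protein was quantified by TMT mass spectrometry relative to DMSO controls; the thermal stability score was transformed to a z-score; mean of n = 3 experiments.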

RAD1 (UniProt O60671) was tested. Which thermal stability z-score did it give?
Its thermal stability z-score is 1.31.

For TVP23C|TVP23B, which thermal stability z-score is on record?
Its thermal stability z-score is 0.27.

Which thermal stability z-score does the source give for WDR70 (UniProt Q9NW82) here?
Its thermal stability z-score is -0.891.

For GSK3A (UniProt P49840), which thermal stability z-score is on record?
The thermal stability z-score was -0.881.

For SRP68 (UniProt Q9UHB9), which thermal stability z-score is on record?
The thermal stability z-score was 0.344.

For ABCF3 (UniProt Q9NUQ8), which thermal stability z-score is on record?
Its thermal stability z-score is 0.516.

How did the thermal stability z-score turn out when PGAM5 (UniProt Q96HS1) was run?
Its thermal stability z-score is 0.701.

With CAMK2D (UniProt Q13557) as the target, how does the thermal stability z-score read?
Its thermal stability z-score is -0.0188.

With METTL15 (UniProt A6NJ78) as the target, how does the thermal stability z-score read?
The thermal stability z-score was 0.348.

Which thermal stability z-score does the source give for CHPF (UniProt Q8IZ52) here?
Its thermal stability z-score is -0.257.

How did the thermal stability z-score turn out when VDAC3 (UniProt Q9Y277) was run?
The thermal stability z-score was 0.848.

Which thermal stability z-score does the source give for DHCR24 (UniProt Q15392) here?
Its thermal stability z-score is 0.726.

Which thermal stability z-score does the source give for TELO2 (UniProt Q9Y4R8) here?
The thermal stability z-score was 0.208.

With TPRKB (UniProt Q9Y3C4) as the target, how does the thermal stability z-score read?
Its thermal stability z-score is -0.881.

How did the thermal stability z-score turn out when MTCH1 (UniProt Q9NZJ7) was run?
The thermal stability z-score was 0.404.

PCSK9 (UniProt Q8NBP7) was tested. Which thermal stability z-score did it give?
The thermal stability z-score was 0.0738.

With AMDHD2 (UniProt Q9Y303) as the target, how does the thermal stability z-score read?
Its thermal stability z-score is 1.3.

RPS6KB1 (UniProt P23443) was tested. Which thermal stability z-score did it give?
Its thermal stability z-score is 0.138.

How did the thermal stability z-score turn out when TCP1 (UniProt P17987) was run?
Its thermal stability z-score is -0.229.

With PIK3C3 (UniProt Q8NEB9) as the target, how does the thermal stability z-score read?
The thermal stability z-score was -0.484.

How did the thermal stability z-score turn out when TUBB (UniProt P07437) was run?
Its thermal stability z-score is -0.425.

GOLGB1 (UniProt Q14789) was tested. Which thermal stability z-score did it give?
Its thermal stability z-score is 0.886.

With UCHL5 (UniProt Q9Y5K5) as the target, how does the thermal stability z-score read?
Its thermal stability z-score is 0.855.

How did the thermal stability z-score turn out when DYNC1LI2 (UniProt O43237) was run?
Its thermal stability z-score is 0.192.

With PFKFB3 (UniProt Q16875) as the target, how does the thermal stability z-score read?
Its thermal stability z-score is 0.00649.

Which thermal stability z-score does the source give for NME4 (UniProt O00746) here?
Its thermal stability z-score is -1.86.

For TRAPPC5 (UniProt Q8IUR0), which thermal stability z-score is on record?
Its thermal stability z-score is 0.00376.

How did the thermal stability z-score turn out when BICD2 (UniProt Q8TD16) was run?
The thermal stability z-score was 0.755.

Which thermal stability z-score does the source give for DNASE2 (UniProt O00115) here?
Its thermal stability z-score is 0.114.

With SHROOM1 (UniProt Q2M3G4) as the target, how does the thermal stability z-score read?
Its thermal stability z-score is 0.508.

How did the thermal stability z-score turn out when MRPS27 (UniProt Q92552) was run?
Its thermal stability z-score is 0.189.

Which thermal stability z-score does the source give for NO66 (UniProt Q9H6W3) here?
Its thermal stability z-score is 0.842.

SORD (UniProt Q00796) was tested. Which thermal stability z-score did it give?
The thermal stability z-score was -0.608.

HPRT1 (UniProt P00492) was tested. Which thermal stability z-score did it give?
Its thermal stability z-score is 0.0837.

With SRXN1 (UniProt Q9BYN0) as the target, how does the thermal stability z-score read?
The thermal stability z-score was 0.115.

PAGE1 (UniProt O75459) was tested. Which thermal stability z-score did it give?
Its thermal stability z-score is -0.636.

With SRSF7 (UniProt Q16629) as the target, how does the thermal stability z-score read?
Its thermal stability z-score is 0.182.

Which thermal stability z-score does the source give for BCAT2 (UniProt O15382) here?
The thermal stability z-score was 1.1.

With EIF2AK2 (UniProt P19525) as the target, how does the thermal stability z-score read?
Its thermal stability z-score is -1.01.

For TFG (UniProt Q92734), which thermal stability z-score is on record?
The thermal stability z-score was 0.134.

How did the thermal stability z-score turn out when STAT2 (UniProt P52630) was run?
The thermal stability z-score was 0.171.

SRSF1 (UniProt Q07955) was tested. Which thermal stability z-score did it give?
Its thermal stability z-score is -0.17.

Which thermal stability z-score does the source give for FBXO22 (UniProt Q8NEZ5) here?
The thermal stability z-score was -0.412.

With AKR7A2 (UniProt O43488) as the target, how does the thermal stability z-score read?
Its thermal stability z-score is 0.581.

With HPS3 (UniProt Q969F9) as the target, how does the thermal stability z-score read?
The thermal stability z-score was -0.255.

How did the thermal stability z-score turn out when SIGMAR1 (UniProt Q99720) was run?
The thermal stability z-score was 0.687.

How did the thermal stability z-score turn out when PCF11 (UniProt O94913) was run?
Its thermal stability z-score is -0.0822.

For GAR1 (UniProt Q9NY12), which thermal stability z-score is on record?
The thermal stability z-score was -0.376.

Which thermal stability z-score does the source give for STAT6 (UniProt P42226) here?
Its thermal stability z-score is 0.472.

HMOX2 (UniProt P30519) was tested. Which thermal stability z-score did it give?
Its thermal stability z-score is 0.895.

For PPME1 (UniProt Q9Y570), which thermal stability z-score is on record?
The thermal stability z-score was -1.09.

For POLR3B (UniProt Q9NW08), which thermal stability z-score is on record?
The thermal stability z-score was 0.309.

With YME1L1 (UniProt Q96TA2) as the target, how does the thermal stability z-score read?
The thermal stability z-score was -0.298.

POFUT1 (UniProt Q9H488) was tested. Which thermal stability z-score did it give?
Its thermal stability z-score is 1.06.

ACOT7 (UniProt O00154) was tested. Which thermal stability z-score did it give?
Its thermal stability z-score is -0.151.

Which thermal stability z-score does the source give for WDR44 (UniProt Q5JSH3) here?
Its thermal stability z-score is 0.635.

Which thermal stability z-score does the source give for GSDMD (UniProt P57764) here?
The thermal stability z-score was -0.198.

How did the thermal stability z-score turn out when GYS1 (UniProt P13807) was run?
Its thermal stability z-score is 0.706.

For SLC25A46 (UniProt Q96AG3), which thermal stability z-score is on record?
The thermal stability z-score was 0.109.

OTULIN (UniProt Q96BN8) was tested. Which thermal stability z-score did it give?
The thermal stability z-score was -0.452.

Which thermal stability z-score does the source give for GUSB (UniProt P08236) here?
The thermal stability z-score was 0.885.

With USP10 (UniProt Q14694) as the target, how does the thermal stability z-score read?
The thermal stability z-score was -0.241.

How did the thermal stability z-score turn out when PLOD3 (UniProt O60568) was run?
Its thermal stability z-score is 0.333.

SMARCE1 (UniProt Q969G3) was tested. Which thermal stability z-score did it give?
The thermal stability z-score was 0.125.

For LYN (UniProt P07948), which thermal stability z-score is on record?
The thermal stability z-score was -0.89.

For MVB12A (UniProt Q96EY5), which thermal stability z-score is on record?
The thermal stability z-score was 0.35.

How did the thermal stability z-score turn out when ANO10 (UniProt Q9NW15) was run?
The thermal stability z-score was -0.262.

KDM5C (UniProt P41229) was tested. Which thermal stability z-score did it give?
The thermal stability z-score was -0.2.

Which thermal stability z-score does the source give for ABL2 (UniProt P42684) here?
Its thermal stability z-score is -0.0185.

CANT1 (UniProt Q8WVQ1) was tested. Which thermal stability z-score did it give?
Its thermal stability z-score is -0.0872.

Which thermal stability z-score does the source give for PRKCDBP (UniProt Q969G5) here?
Its thermal stability z-score is 0.331.

From the supplement of paper PMC12463676, “Small-molecule dissolution of stress granules by redox modulation benefits ALS models” (Nature Chemical Biology, 2025)
